The values below are quoted from earlier work in patent US8604084B2, “Method” (GlaxoSmithKline, LLC, priority 2008, dated 2013).

Each structure is given as a SMILES string.

In the case of `CC(=O)Nc1ccc(O)cc1` [Paracetamol], under “adults”, the mean plasma half-life was 2.4 h and the “plasma half-life, range” value was 1.5 to 3.0 h. The plasma protein binding result (in vivo) was “not bound to plasma protein to any extent”. In addition, where the note is “independent of dose in the range of 5-20 mg/kg”, the absolute oral bioavailability entry is “about 80%”. Also, the volume of distribution entry (per body weight) is listed as “about 0.9 litre/kilogram”.
